Experimental data as given in US10100077B2, “6-aryl-9-glycosylpurines and use thereof” (UNIVERZITA PALACKEHO V OLOMOUCI, priority 2014, dated 2018).

System: Normal human dermal fibroblasts (NHDF)
Assay: In vitro phototoxicity test (UVA, neutral red)
Assay type: cell-based
Conditions: UVA 5.0 J/cm^2, 0.9-125 μmol/l or 3.9-500 μmol/l, neutral red after 24 hours
Protocol: Phototoxic potential of test compound was determined by modified in vitro test validated phototoxicity evaluation (Spielmann H, Balls M, Dupuis J, Pape W J, Pechovitch G, de Silva O, Holzhater H G, Clothier R, Desolle P, Gerberick F, Liebsch M, Lovell W W, Maurer T, Pfannenbecker U, Potthast J M, Csato M, Sladowski D, Steiling W, Brantom P., Toxicol In Vitro. 1998 Jun. 1; 12(3):305-27). Normal human dermal fibroblasts (NHDF) were used as an in vitro model. Cells were isolated from tissue specimens obtained from healthy patients undergoing plastic surgery at the Department of Plastic and Aesthetic Surgery (University Hospital Olomouc). The use of skin tissue was in accordance with the Ethics Committee of the University Hospital and Faculty of Medicine and Dentistry, Palacký University, Olomouc and all patients signed written informed consent. Fibroblasts were used between the 2nd and 4th passage. […]
Test compound was 6-(3-methoxybenzylamino)-9-β-D-arabinofuranosylpurine. […] Intensity of UVA radiation was evaluated before each irradiation by UVA-meter. […] After 24 hours (37° C., 5% CO2) cell damage was evaluated by neutral red (NR) incorporation into viable cells. […] After 5 minutes of intensive shaking absorbance was measured at 540 nm. […] Phototoxic effect was evaluated as % of viability of control cells that was calculated from experimental data (absorbance) according to the following equation: […]

For `COc1cccc(CNc2ncnc3c2ncn3[C@@H]2O[C@H](CO)[C@@H](O)[C@@H]2O)c1` [6-(3-methoxybenzylamino)-9-β-D-arabinofuranosylpurine], the “phototoxic effect (viability after UVA)” value was “non-phototoxic”.
